Columns and labels:
[1] = target: GTPase KRas (Homo sapiens, UniProt P01116, G12C); test: Inhibition of biotinylated Avi-tagged GDP-bound KRAS G12C mutant (1 to 185 residues) (unknown origin) assessed as inhibition of KRAS G12C mutant/SOS/GST-tagged c-Raf complex formation incubated for 1 hr and measured by fluorescence based assay
[2] = tested on: NCI-H1373; test: Growth inhibition of human NCI-H1373 cells assessed as cell viability after 6 days by CellTiter-Glo assay; format: functional, cell-based; details: NCI-H1373, 144 h
[3] = tested on: A-375; test: Growth inhibition of human A-375 cells assessed as cell viability after 6 days by CellTiter-Glo assay; format: functional, cell-based; details: A-375, 144 h
[4] = Downregulation of pERK levels in human NCI-H1373 cells measured after 2 hrs by EISA; format: functional, cell-based; details: NCI-H1373, 2 h
[5] = Downregulation of pERK levels in human A-375 cells measured after 2 hrs by EISA; format: functional, cell-based; details: A-375, 2 h
[6] = tested on: GTPase KRas (Homo sapiens), P01116 [G12C]; test: Inhibition of biotinylated Avi-tagged GDP-bound KRAS G12C mutant (1 to 185 residues) (unknown origin) assessed as inhibition of KRAS G12C mutant/SOS/GST-tagged c-Raf complex formation at 3 uM incubated for 1 hr and measured by fluorescence based assay relative to control
[7] = Intrinsic clearance in mouse liver microsomes at 0.1 to 0.2 umol/L measured after 30 mins in presence of NADPH by LC-MS/MS analysis; format: ADME, Microsome; details: dose 0.1-0.2 µmol/L, read-out: CLH
[8] = Aqueous solubility of the compound in pH 6.8 JP2 fluid measured after 20 hrs by disintegration test; format: physicochemical
[9] = Intrinsic clearance in human liver microsomes at 0.1 to 0.2 umol/L measured after 30 mins in presence of NADPH by LC-MS/MS analysis; format: ADME, Microsome; details: dose 0.1-0.2 µmol/L, read-out: CLH
[10] = tested on: NCI-H1373; test: Antitumor activity against human NCI-H1373 cells xenografted in nude mouse assessed as tumor growth inhibition at 10 mg/kg, sc administered as single dose; format: functional; details: read-out: TGI
[11] = Drug uptake in tumor of nude mouse xenografted with human NCI-H1373 cells at 100 mg/kg, po administered as single dose and measured at 6 hr by LC/MS-MS analysis; format: ADME, organism-based, Neoplasm; details: read-out: Drug uptake
[12] = Plasma concentration in nude mouse xenografted with human NCI-H1373 cells at 30 mg/kg, sc administered as single dose and measured at 1 hr by LC/MS-MS analysis; format: ADME, organism-based
[13] = Toxicity in nude mouse xenografted with human NCI-H1373 cells assessed as effect on body weight at 3 to 30 mg/kg, sc; format: organism-based; details: in vivo, dose 3-30 mg/kg
[14] = Plasma concentration in nude mouse xenografted with human NCI-H1373 cells at 30 mg/kg, sc administered as single dose and measured at 6 hr by LC/MS-MS analysis; format: ADME, organism-based
[15] = Drug uptake in tumor of nude mouse xenografted with human NCI-H1373 cells at 30 mg/kg, sc administered as single dose and measured at 6 hr by LC/MS-MS analysis; format: ADME, organism-based, Neoplasm; details: read-out: Drug uptake
[16] = Plasma concentration in nude mouse xenografted with human NCI-H1373 cells at 100 mg/kg, po administered as single dose and measured at 1 hr by LC/MS-MS analysis; format: ADME, organism-based
[17] = tested on: NCI-H1373; test: Antitumor activity against human NCI-H1373 cells xenografted in nude mouse assessed as inhibition of p-ERK levels at 33 mg/kg, sc administered as single dose and measured after 6 hrs; format: functional
[18] = tested on: NCI-H1373; test: Antitumor activity against human NCI-H1373 cells xenografted in nude mouse assessed as tumor growth inhibition at 3 mg/kg, sc administered as single dose; format: functional; details: read-out: TGI
[19] = tested on: NCI-H1373; test: Antitumor activity against human NCI-H1373 cells xenografted in nude mouse assessed as tumor growth inhibition at 30 mg/kg, sc administered as single dose; format: functional; details: read-out: TGI
[20] = Plasma concentration in nude mouse xenografted with human NCI-H1373 cells at 100 mg/kg, po administered as single dose and measured at 6 hr by LC/MS-MS analysis; format: ADME, organism-based

Q: For `C=CC(=O)N1CC2(CCN(c3nc(OCCCN(C)C)nc4c(F)c(-c5c(C)ccc6[nH]ncc56)c(Cl)cc34)CC2)C1`, which IC50 [1] is on record?
A: 260 nM

Q: Which IC50 [1] does the source give for `C=CC(=O)N1CC2(CCN(c3nc(N(C)C4CCN(CC)CC4)nc4c(F)c(-c5c(C)ccc6[nH]ncc56)c(Cl)cc34)CC2)C1` here?
A: 3200 nM

Q: For `C=CC(=O)N1CCN(c2nc(NC3CCN(C)CC3)nc3c(F)c(-c4c(C)ccc5[nH]ncc45)c(Cl)cc23)CC1`, which IC50 [2] is on record?
A: 650 nM

Q: And the IC50 [3]?
A: 1100 nM

Q: What about the IC50 [1] of the same compound?
A: 470 nM

Q: And the IC50 [4]?
A: 430 nM

Q: And the IC50 [5]?
A: > 10000 nM

Q: For `C=CC(=O)N1CCC2(CC1)CN(c1nc(NC3CCN(C)CC3)nc3c(F)c(-c4c(C)ccc5[nH]ncc45)c(Cl)cc13)C2`, which IC50 [1] is on record?
A: > 30000 nM

Q: What does the source list for `C=CC(=O)N1CC2(CCN(c3nc(NC4CCN(C)CC4)nc4c(F)c(-c5c(C)ccc6[nH]ncc56)c(Cl)cc34)C2)C1`?
A: IC50 [2]: 950 nM; IC50 [3]: 4000 nM; IC50 [1]: 160 nM; IC50 [4]: 550 nM; IC50 [5]: > 10000 nM

Q: Which IC50 [1] does the source give for `CCN1CCC(Oc2nc(N3CCC4(CC3)CN(C(=O)/C=C/CN3CCOCC3)C4)c3cc(Cl)c(-c4c(C)ccc5[nH]ncc45)c(F)c3n2)CC1` here?
A: > 10000 nM

Q: For `C=CC(=O)N1CC2(C1)CN(c1nc(NC3CCN(C)CC3)nc3c(F)c(-c4c(C)ccc5[nH]ncc45)c(Cl)cc13)C2`, which inhibition [6] is on record?
A: 60%

Q: What about the IC50 [1] of the same compound?
A: 3000 nM

Q: Which results are given for `C=CC(=O)N1CC2(CCN(c3nc(OC4CCN(C)CC4)nc4c(F)c(-c5c(C)ccc6[nH]ncc56)c(Cl)cc34)CC2)C1`?
A: IC50 [2]: 100 nM; CLint scaled [7]: 115 mL/min/kg; solubility at 20 h [8]: > 100 µM; IC50 [3]: 2900 nM; IC50 [1]: 70 nM; IC50 [4]: 96 nM; CLint scaled [9]: 35 mL/min/kg

Q: Which IC50 [1] does the source give for `C=CC(=O)N1CC2(CCN(c3nc(SC4CCN(CC)CC4)nc4c(F)c(-c5c(C)ccc6[nH]ncc56)c(Cl)cc34)CC2)C1` here?
A: 940 nM

Q: With `C=CC(=O)N1CC2(CCN(c3nc(OCCCN4CCOCC4)nc4c(F)c(-c5c(C)ccc6[nH]ncc56)c(Cl)cc34)CC2)C1` as the compound, how does the IC50 [1] read?
A: 650 nM

Q: With `C=CC(=O)N1CC2(CCN(c3nc(OCC4CCN(C)CC4)nc4c(F)c(-c5c(C)ccc6[nH]ncc56)c(Cl)cc34)CC2)C1` as the compound, how does the IC50 [1] read?
A: 130 nM

Q: For `C=CC(=O)N1CC2(CCN(c3nc(OC4CCN(CC)CC4)nc4c(F)c(-c5c(C)ccc6[nH]ncc56)c(Cl)cc34)CC2)C1`, which IC50 [2] is on record?
A: 120 nM

Q: What about the CLint scaled [7] of the same compound?
A: 115 mL/min/kg

Q: And the inhibition in vivo at 10 mg/kg [10]?
A: 50%

Q: And the concentration at 6 h [11]?
A: 70 nM

Q: And the concentration at 1 h [12]?
A: 3800 nM

Q: What about the Activity [13] of the same compound?
A: Non-Toxic

Q: What about the solubility at 20 h [8] of the same compound?
A: > 100 µM

Q: And the IC50 [3]?
A: 3500 nM

Q: What about the concentration at 6 h [14] of the same compound?
A: 720 nM

Q: What about the concentration at 6 h [15] of the same compound?
A: 740 nM

Q: And the concentration at 1 h [16]?
A: 670 nM

Q: And the IC50 [1]?
A: 77 nM

Q: And the IC50 [4]?
A: 140 nM

Q: What about the CLint scaled [9] of the same compound?
A: 37 mL/min/kg

Q: What about the inhibition in vivo at 33 mg/kg [17] of the same compound?
A: 63%

Q: And the inhibition in vivo at 3 mg/kg [18]?
A: 33%

Q: And the inhibition in vivo at 30 mg/kg [19]?
A: 92%

Q: And the concentration at 6 h [20]?
A: 130 nM

Q: For `C=CC(=O)N1CC2(CCN(c3nc(OCCCN4CCCCC4)nc4c(F)c(-c5c(C)ccc6[nH]ncc56)c(Cl)cc34)CC2)C1`, which IC50 [1] is on record?
A: 370 nM

Q: Which IC50 [2] does the source give for `C=CC(=O)N1CC2(CCN(c3nc(NC4CCN(C)CC4)nc4c(F)c(-c5c(C)ccc6[nH]ncc56)c(Cl)cc34)CC2)C1` here?
A: 390 nM

Q: What about the IC50 [3] of the same compound?
A: 2800 nM

Q: And the IC50 [1]?
A: 350 nM

Q: And the IC50 [4]?
A: 380 nM

Q: What about the IC50 [5] of the same compound?
A: > 10000 nM

Q: Which IC50 [1] does the source give for `C=CC(=O)N1CC2(CCN(c3nc(OC4(CN(C)C)CCC4)nc4c(F)c(-c5c(C)ccc6[nH]ncc56)c(Cl)cc34)CC2)C1` here?
A: 770 nM

Q: For `C=CC(=O)N1CCC2(C1)CN(c1nc(NC3CCN(C)CC3)nc3c(F)c(-c4c(C)ccc5[nH]ncc45)c(Cl)cc13)C2`, which IC50 [1] is on record?
A: 18000 nM

Q: With `C=CC(=O)N1CC2(CCN(c3nc(OCCN(C)C)nc4c(F)c(-c5c(C)ccc6[nH]ncc56)c(Cl)cc34)CC2)C1` as the compound, how does the IC50 [1] read?
A: 340 nM

Q: Which IC50 [1] does the source give for `C=CC(=O)N1CC2(CCN(c3nc(OC4CCOCC4)nc4c(F)c(-c5c(C)ccc6[nH]ncc56)c(Cl)cc34)CC2)C1` here?
A: 2100 nM

From ChEMBL document CHEMBL5107997, “Discovery and biological evaluation of 1-{2,7-diazaspiro[3.5]nonan-2-yl}prop-2-en-1-one derivatives as covalent inhibitors of KRAS G12C with favorable metabolic stability and anti-tumor activity” (Bioorg Med Chem, 2022)
